Assay results published in article PMC11124822, “Discovery and Anticancer Screening of Novel Oxindole-Based Derivative Bearing Pyridyl Group as Potent and Selective Dual FLT3/CDK2 Kinase Inhibitor” (Pharmaceuticals, 2024).

Legend:
Test in all cases: NCI-60 screen, subpanel summary
Assay type in all cases: cell-based, human
Breast cancer subpanel = test system: Breast cancer subpanel
Description: (§1) (Table 5). Moreover, the ratio of the MG-MID of the full-panel to its individual sub-panels offers the selectivity index.

NSCL cancer subpanel = test system: NSCL cancer subpanel
Description: as §1

Ovarian cancer subpanel = test system: Ovarian cancer subpanel
Description: as §1

In the case of `O=C1Nc2cc(Cl)ccc2C1=Cc1ccc(OCc2cccnc2)cc1` (mixture of isomers) [Compound 5l, (E/Z)-6-Chloro-3-[4-(pyridin-3-ylmethoxy)benzylidene] indolin-2-one], the GI50 (Breast cancer subpanel; Homo sapiens, five-dose, Breast cancer subpanel, read-out: MG-MID (GI50)) was 8.14 µM, the “Selectivity Index” value (Breast cancer subpanel; ratio of full-panel MG-MID to Breast cancer subpanel MG-MID) was 1.50 and the GI50 (NSCL cancer subpanel; Homo sapiens, five-dose, NSCL cancer subpanel, read-out: MG-MID (GI50)) was 11.7 µM. The “Selectivity Index” value (NSCL cancer subpanel; ratio of full-panel MG-MID to NSCL cancer subpanel MG-MID) was 1.05, the GI50 (Ovarian cancer subpanel; Homo sapiens, five-dose, Ovarian cancer subpanel, read-out: MG-MID (GI50)) was 29.4 µM and the “Selectivity Index” value (Ovarian cancer subpanel; ratio of full-panel MG-MID to Ovarian cancer subpanel MG-MID) was 0.42.
